# Results from ChEMBL document CHEMBL1782003, “Development and SAR of functionally selective allosteric modulators of GABAA receptors” (Bioorg Med Chem, 2011).
# Experiment: physchem
# Details: DMSO
compound,measurement,value
CCNC(=O)c1nnc2c(-c3cc(OC)ccc3OC)cccc2c1N,solubility,8.2 µM
COc1ccc(OC)c(-c2cccc3c(N)c4c(nc23)CN(C2CCC2)C4=O)c1,solubility,2.3 µM
COc1ccc(OC)c(-c2c(F)ccc3c(N)c(C(=O)NC(C)C)nnc23)c1,solubility,7.8 µM
COc1ccc(OC)c(-c2cccc3c(N)c4c(nc23)CN(C)C4=O)c1,solubility,0.8 µM
COc1ccc(-c2c(F)ccc3c(N)c(C(=O)NC4CC4)nnc23)c(OC)n1,solubility,2 µM
CCNC(=O)c1nnc2c(-c3cc(OC)ccc3OC)c(F)ccc2c1N,solubility,5 µM
COc1ccc(OC)c(-c2cccc3c(N)c(C(=O)NCCC(F)(F)F)nnc23)c1,solubility,2.8 µM
CCC(C)(C)N1Cc2nc3c(-c4cc(OC)ccc4OC)cccc3c(N)c2C1=O,solubility,2 µM
CCCNC(=O)c1nnc2c(-c3ccccc3)cccc2c1N,solubility,9.5 µM
CCCNC(=O)c1nnc2c(-c3ccccc3C)cccc2c1N,solubility,26.8 µM
CCCNC(=O)c1nnc2c(-c3cc(OC)ccc3OC)cccc2c1N [AZD6280],solubility,3.9 µM
COc1ccc(OC)c(-c2c(F)ccc3c(N)c4c(nc23)CN(C2CC2)C4=O)c1,solubility,1 µM
CCCNC(=O)c1nnc2c(-c3cnccc3OC)cccc2c1N,solubility,28.1 µM
CCCNC(=O)c1nnc2c(-c3cccc(C)c3)cccc2c1N,solubility,8 µM
COc1ncc(C)cc1-c1cccc2c(N)c(C(=O)NC3CC3)nnc12,solubility,10.8 µM
CCCN1Cc2nc3c(CC(C)(C)C)cccc3c(N)c2C1=O,solubility,3.4 µM
COc1ccc(OC)c(-c2c(F)ccc3c(N)c4c(nc23)CN(C2CCC2)C4=O)c1,solubility,1 µM
CNC(=O)c1nnc2c(-c3cc(OC)ccc3OC)cccc2c1N,solubility,2.6 µM
CCCNC(=O)c1nnc2c(CC(C)C)cccc2c1N,solubility,4.6 µM
CCC(C)NC(=O)c1nnc2c(-c3cc(OC)ccc3OC)cccc2c1N (stereo not given),solubility,1.2 µM
COc1ccc(OC)c(-c2cccc3c(N)c(C(=O)NC4CCC4)nnc23)c1,solubility,4.3 µM
COc1ccc(OC)c(-c2cccc3c(N)c(C(=O)NCCCO)nnc23)c1,solubility,11 µM
CCCNC(=O)c1nnc2c(-c3cc(OC)ccc3OC)c(F)ccc2c1N,solubility,3.3 µM
COc1ccc(OC)c(-c2c(F)ccc3c(N)c(C(=O)NC4CC4)nnc23)c1,solubility,8.8 µM
COc1cc(-c2c(F)ccc3c(N)c(C(=O)NC4CC4)nnc23)c(OC)nn1,solubility,6.2 µM
CCCNC(=O)c1nnc2c(-c3cc(C)ccc3OC)cccc2c1N,solubility,8.3 µM
CCCNC(=O)c1nnc2c(-c3cc(C)cc(C)c3)cccc2c1N,solubility,0.8 µM
COc1ccc(OC)c(-c2cccc3c(N)c4c(nc23)CN(C2CC2)C4=O)c1,solubility,4.9 µM
COc1ccc(OC)c(-c2c(F)ccc3c(N)c(C(=O)NC4CCC4)nnc23)c1,solubility,2.8 µM
COc1ccc(OC)c(-c2cccc3c(N)c4c(nc23)CN(C2CC(C)C2)C4=O)c1 (stereo not given),solubility,0.9 µM
CCCNC(=O)c1nnc2c(-c3ccc(C)cc3C)cccc2c1N,solubility,0.8 µM
CCCNC(=O)c1nnc2c(-c3cnc(OC)nc3OC)cccc2c1N,solubility,1.9 µM
COc1ccc(OC)c(-c2cccc3c(N)c4c(nc23)CN(C2CCCC2)C4=O)c1,solubility,2.9 µM
CCCNC(=O)c1nnc2c(-c3cc(C)ccc3C)cccc2c1N,solubility,1.4 µM
CCN1Cc2nc3c(-c4cc(OC)ccc4OC)c(F)ccc3c(N)c2C1=O,solubility,0.3 µM
COc1ccc(OC)c(-c2cccc3c(N)c(C(=O)NC(C)C)nnc23)c1,solubility,4.7 µM
COc1ccc(OC)c(-c2cccc3c(N)c(C(=O)NC4CC(C)C4)nnc23)c1 (stereo not given),solubility,1.8 µM
COc1ccc(OC)c(-c2cccc3c(N)c(C(=O)NC4CC4)nnc23)c1,solubility,8.9 µM
CCN1Cc2nc3c(-c4cc(OC)ccc4OC)cccc3c(N)c2C1=O,solubility,0.5 µM
CCCNC(=O)c1nnc2c(-c3c(F)cccc3OC)cccc2c1N [AZD7325],solubility,7.6 µM
